Reference: US20080131920A1, “Ion flux in biological processes, and methods related thereto” (priority 2005, published 2008)

Assays:
[1] = tested on: Xenopus tail regeneration; settings: compound in medium beginning immediately after tail amputation (stage 40-41)
[2] = tested on: Sonic hedgehog (Shh), Nodal; experiment: Sidedness of Shh and Nodal expression in chick embryos (in ovo culture, in situ hybridization); settings: in vivo
From the text: We examined the effect of inhibiting H^+-V-ATPase activity on the expression of the early left-sided marker Sonic hedgehog (Shh). Inhibition of H^+-V-ATPase activity following treatment with concanamycin or DCCD specifically randomized the expression of Shh, as well as that of and the downstream marker Nodal. Compared to controls, in which these two markers are always left-sided, concanamycin induced aberrant sidedness of Shh expression in 67% and Nodal in 24% of embryos. Thus, as in Xenopus, H^+-V-ATPase is upstream of the known asymmetric gene cascade, and is required for normal LR patterning in chicks.
To perform a pharmacological screen on chick embryos with minimal disturbance to normal morphogenesis, we optimized a chicken in ovo culture system. A small hole was made on the top of each egg (prior to incubation), and 5 ml of light albumin was removed. […]. Eggs were securely wrapped with Scotch tape, incubated at 37.5° C. to the desired stages, then fixed for analysis of laterality markers by in situ hybridization.
Whole mount in situ hybridization (WISH) on Xenopus was performed according to standard methods. DNA used to transcribe in situ hybridization probes were XNr-1 (Lohr et al., 1998, Developmental Genetics 23: 194-202; Lowe et al., 1996, Nature 381: 158-161); cShh (Levin et al., 1995, Cell 82: 803-814); cNodal (Levin et al., 1995, Cell 82: 803-814).

Xenopus embryos = type: in vivo; settings: treated from fertilization to stage 7; organs scored at stage 45
Dugesia japonica = experiment: Planarian regeneration, anterior-posterior phenotype (anteriorizing index) under GJC inhibition; type: in vivo
Experimental: Regenerating worms were contacted with the compound at an early stage of regeneration (2 days after cutting). 1-10 μM heptanol was dissolved in the medium. […] At 7 days post-cutting, we assayed the worms for the morphology of blastemas.
We next sought to ascertain whether the anteriorizing effect was dependent on the AP (anterior-posterior) level from which the fragment originated. Worms were amputated at four levels to make five body fragments: head, pre-pharyngeal, trunk (including the pharynx), post-pharyngeal and tail fragments.
The asexual clonal strain GI of the planarian, Dugesia japonica, was used in these study. In all experiments, the worms were starved for 1 week before use.
Intact worms 1-1.5 cm long were put into heptanol (or hexanol) solution (0.0045-0.006% vigorously vortexed into spring water) immediately prior to amputation to equilibrate the worms with the drug solution. The worms were amputated at four levels to generate the head, pre-pharyngeal, trunk (or “pharyngeal”), post-pharyngeal, and tail fragments. Worm fragments were incubated at 22° C. for 2 days. The heptanol solution was exchanged for fresh solution every day. The worms were then washed with water twice and incubated in worm water for 14-20 days to monitor the phenotypes.
We developed a quantitative scheme allowing comparison of degree of anteriorization among groups of worms. Each worm was scored on the following scale by observing the posterior blastema: 0 points—normal (a normal worm with a fully-patterned tail), 1 point—weak anteriorization of posterior blastema (missing tail or bipolar pharynx), 2 points—stronger anteriorization of posterior blastema (incomplete ectopic head with eye structures), or 3 points—complete anteriorization of posterior blastema (bipolar head, where the ectopic head has complete development with 2 normal eyes). For each group of worms, we calculated an average score that is the sum of all scores for the worms divided by the total number of worms. For convenience, the index was scaled from 0 to 100 (final index=average score*100/3). On this scale, a group of worms that were all normal would score 0, while a group of worms all of which were fully double-head would score 100. This scheme was focused on ascertaining the extent of anteriorization as judged by external morphology.

Compound	effect on rate or extent of tail regeneration [1]	also measured
O=C(O)c1c2ccccc2cc2ccccc12 [9-anthracene-carboxylic acid]	no effect	
CC1(C)[C@@H](O)CC[C@]2(C)[C@H]3C(=O)C=C4[C@@H]5C[C@@](C)(C(=O)O)CC[C@]5(C)CC[C@@]4(C)[C@]3(C)CC[C@@H]12 [18-β-glycyrrhetinic acid]	no effect	
[Ba+2].[Cl-].[Cl-] [BaCl]	absence of regeneration	
C(=NC1CCCCC1)=NC1CCCCC1 [DCCD]		expression of Shh and Nodal (sidedness) [2]: randomized
CCN(c1nc(N)c(C(=O)NC(=N)N)nc1Cl)C(C)C [EIPA, Ethylisopropyl amiloride]	no effect	
O=C1CCC(N2Cc3ccccc3C2=O)C(=O)N1 (centres unmarked) [EM12]	no effect	
Cc1nc2c(OCc3ccccc3)cccn2c1CC#N [SCH28080]	no effect	
COc1ccc2c(c1OC)CN1CCc3cc4c(cc3C1C2)OCO4 (centres unmarked) [THB, Tetrahydroberberine]	no effect	
N=C(N)NC(=O)c1nc(Cl)c(N)nc1N [amiloride]	no effect	
CO/C1=C\C(C)=C\[C@@H](C)[C@@H](O)[C@@H](C)C/C(C)=C/C=C/[C@H](OC)[C@@H]([C@@H](C)[C@@H](O)[C@H](C)[C@@]2(O)C[C@@H](O)[C@H](C)[C@@H](C(C)C)O2)OC1=O [bafilomycin]		heterotaxia, % of the embryos (Xenopus embryos): 36%
CC1=NS(=O)(=O)c2cc(Cl)ccc2N1 [diazoxide]	no effect	
COc1ccc(Cl)cc1C(=O)NCCc1ccc(S(=O)(=O)NC(=O)NC2CCCCC2)cc1 [glibenclamide]	no effect	
CCCCCCCO [heptanol]	no effect	toxicity to the worms (Dugesia japonica; 1-10 μM): not toxic; trunk fragments with anteriorization of both blastemas (Dugesia japonica; 1-10 μM in the medium, scored 7 days post-cutting): 43%; complete bipolar heads (Dugesia japonica; 1-10 μM, trunk fragments): 16%
CCCCCCO [hexanol]		strong anteriorization of the posterior blastema (Dugesia japonica; in vivo): never induced strong anteriorization; tail regeneration (Dugesia japonica; in vivo): did inhibit tail regeneration
C[C@@H]1O[C@@H](O[C@H]2C[C@@H](O)[C@]3(CO)[C@H]4[C@H](O)C[C@]5(C)[C@@H](C6=CC(=O)OC6)CC[C@]5(O)[C@@H]4CC[C@]3(O)C2)[C@H](O)[C@H](O)[C@H]1O [ouabain]	no effect	
CCOC(=O)c1cccc(N)c1 [tricaine]	absence of regeneration	
